Test results taken from patent US11000528B2, “Compound useful for the treatment of degenerative and inflammatory diseases” (Galapagos NV, priority 2009, dated 2021).

Assays:
[1] = Pharmacokinetic study in rodents (Sprague-Dawley rats); type: in vivo; conditions: male, plasma; Sprague-Dawley rat, IV 1 mg/kg
Experimental: Sprague-Dawley rats (male, 5-6 weeks old) were obtained from Janvier (France). Rats were acclimatized for at least 7 days before treatment and were kept on a 12 hr light/dark cycle (0700-1900). Temperature was maintained at approximately 22° C., and food and water were provided ad libitum. […] After the surgery, rats were housed individually. Rats were deprived of food for at least 16 hours before oral dosing and 6 hours after. Water was provided ad libitum.
Test compounds were orally dosed as a single esophageal gavage at 5 mg/kg under a dosing volume of 5 ml/kg and intravenously dosed as a bolus via the caudal vein at 1 mg/kg under a dosing volume of 5 mL/kg. Each group consisted of 3 rats. […] For compound 11, blood samples were collected at the retro-orbital sinus with lithium heparin as anti-coagulant at the following time points 0.25, 1, 3 and 6 hrs (oral route). Whole blood samples were centrifuged at 5000 rpm for 10 min and the resulting plasma samples were stored at −20° C. pending analysis.
Plasma concentrations of each test compound were determined by an LC-MS/MS method in which the mass spectrometer was operated in positive electrospray mode.
Pharmacokinetic parameters were calculated using Winnonlin® (Pharsight®, United States).

[2] = tested on: Circulating TNF alpha levels; assay: Septic shock model (LPS-induced TNF alpha release); type: in vivo, mouse; conditions: BALB/cJ mice, 30 mg/kg po, LPS 15 μg/kg ip
Experimental: Injection of lipopolysaccharide (LPS) induces a rapid release of soluble tumour necrosis factor (TNF-alpha) into the periphery. This model was used to analyse prospective blockers of TNF release in vivo. Six BALB/cJ female mice (20 g) per group were treated at the intended dosing once, po. Thirty minutes later, LPS (15 μg/kg; E. coli serotype 0111:B4) was injected ip. Ninety minutes later, mice were euthanized and blood was collected. Circulating TNF alpha levels were determined using commercially available ELISA kits. Dexamethasone ([…]) was used as a reference anti-inflammatory compound. Selected compounds were tested at one or multiple doses, e.g. 3 and/or 10 and/or 30 mg/kg, po.

[3] = tested on: MMP13 levels in human chondrosarcoma cell line SW1353; assay: cells; conditions: SW1353, 48 h
Experimental: The cells were seeded in 96 well plates at 15,000 cells/well in a volume of 120 μL DMEM (Invitrogen) containing 10% (v/v) FBS and 1% penicillin/streptomycin (InVitrogen) incubated at 37° C. 5% CO2. Cells were preincubated with 15 μL of compound in M199 medium with 2% DMSO 1 hr before triggering with 15 μL OSM and IL-1β to reach 25 ng/mL OSM and 1 ng/mL IL-1β, and MMP13 levels were measured in conditioned medium 48 hours after triggering. MMP13 activity was measured using an antibody capture activity assay. For this purpose, 384 well plates (NUNC, 460518, MaxiSorb black) were coated with 35 μL of a 1.5 μg/mL anti-human MMP13 antibody (R&D Systems, MAB511) solution for 24 hrs at 4° C. After washing the wells 2 times with PBS+0.05% Tween, the remaining binding sites were blocked with 100 μL 5% non-fat dry milk (Santa Cruz, sc-2325, Blotto) in PBS for 24 hr at 4° C. […] After incubation for 24 hrs at 37° C. fluorescence of the converted substrate was measured in a Perkin Elmer Wallac EnVision 2102 Multilabel Reader (wavelength excitation: 320 nm, wavelength emission: 405 nm). Percentage inhibition=((fluorescence determined in the presence of vehicle−fluorescence determined for sample with test compound present) divided by (fluorescence determined in the presence of vehicle−fluorescence determined for sample without trigger))*100.

[4] = Microsomal stability, human liver microsomes; type: in vitro ADME; conditions: 3 μM compound
Experimental: (§1) A 10 mM stock solution of compound in DMSO was diluted 1000 fold in a 182 mM phosphate buffer pH7.4 in a 96 deep well plate (Greiner, Cat no. 780285) and pre-incubated at 37° C.
(§2) 40 μL of deionised water was added to a well of a polypropylene Matrix 2D barcode labelled storage tube (Thermo Scientific) and pre-incubated at 37° C.
(§3) A Glucose-6-phophate-dehydrogenase (G6PDH) working stock solution was prepared in 182 mM phosphate buffer pH7.4 and placed on ice before use. A co-factor containing MgCl2, glucose-6-phosphate and NADP+ was prepared in deionised water and placed on ice before use.
(§4) A final working solution containing liver microsomes (Xenotech) of a species of interest (human, mouse, rat, dog), previously described G6PDH and co-factors was prepared and this mix was incubated for no longer than 20 minutes at room temperature.
(§5) 30 μL of the pre-heated compound dilution was added to 40 μL of pre-heated water in the Matrix tubes and 30 μL of the microsomal mix was added. Final reaction concentrations were 3 μM compound, 1 mg microsomes, 0.4 U/mL GDPDH, 3.3 mM MgCl2, 3.3 mM glucose-6-phosphate and 1.3 mM NADP+.
(§6) To measure percentage remaining of compound at time zero MeOH or ACN was added (1:1) to the well before adding the microsomal mix. The plates were sealed with Matrix Sepra Seals™ (Matrix, Cat. No. 4464) and shaken for a few seconds ensure complete mixing of all components.
(§7) The samples which were not stopped are incubated at 37° C., 300 rpm and after 1 hr of incubation the reaction was stopped with MeOH or ACN (1:1).
(§8) After stopping the reaction the samples were mixed and placed on ice for 30 min to precipitate the proteins. The plates were then centrifuged 30 min at 1200 rcf at 4° C. and the supernatant was transferred to a 96 v-bottom PP plate (Greiner, 651201) for analysis on LCMS.
(§9) These plates were sealed with sealing mats (MA96RD-04S) of www.kinesis.co.uk and samples were measured at room temperature on LCMS (ZQ 1525 from Waters) under optimized conditions using Quanoptimize to determine the appropriate mass of the parent molecule.
(§10) The samples were analyzed on LCMS with a flow rate of 1 mL/min. Solvent A was 15 mM ammonia and solvent B was methanol or acetonitrile, depending on the stop solution used. The samples were run under positive ion spray on an XBridge C18 […] (2.1×30 mm) column, from Waters.
(§11) Peak area from the parent compound at time 0 was considered to be 100% remaining. The percentage remaining after 1 hr incubation was calculated from time 0 and was calculated as the percentage remaining. The solubility of the compound in the final test concentration in buffer is inspected by microscope and results are reported.
(§12) The data on microsomal stability are expressed as a percentage of the total amount of compound remaining after 60 min.

[5] = Microsomal stability, rat liver microsomes; type: in vitro ADME; conditions: 3 μM compound
Experimental: as §1, §2, §3, §4, §5, §6, §7, §8, §9, §10, §11, §12

rat CIA model = assay: Rat collagen induced arthritis (CIA) model; type: in vivo; parameters: key to Clinical Assessment End point score / Clinical Assessment AUC Score / Paw swelling / Larsen' Score: a “*” indicates that there was a statistically significant improvement in the score, p 0.05 vs. untreated control; conditions: for Clinical Assessment AUC Score / Clinical Assessment End point score: normalized score
Experimental: Dark Agouti rats (male, 7-8 weeks old) were obtained from Harlan Laboratories (Maison-Alfort, France). Rats were kept on a 12 hr light/dark cycle (0700-1900). Temperature was maintained at 22° C., and food and water were provided ad libitum.
One day before the experiment, CII solution (2 mg/mL) was prepared with 0.05 M acetic acid and stored at 4° C. Just before the immunization, equal volumes of adjuvant (IFA) and CII were mixed by a homogenizer in a pre-cooled glass bottle in an ice water bath. Extra adjuvant and prolonged homogenization may be required if an emulsion is not formed. 0.2 mL of the emulsion was injected intradermally at the base of the tail of each rat on day 1, a second booster intradermal injection (CII solution at 2 mg/mL in CFA 0.1 mL saline) was performed on day 9. This immunization method was modified from published methods (Sims et al, 2004; Jou et al., 2005).
The therapeutic effects of the compounds were tested in the rat CIA model. Rats were randomly divided into equal groups and each group contained 10 rats. All rats were immunized on day 1 and boosted on day 9. Therapeutic dosing lasted from day 16 to day 30. The negative control group was treated with vehicle (MC 0.5%) and the positive control group with Enbrcl (10 mg/kg, 3× week., s.c.). A compound of interest was typically tested at 3 doses, e.g. 3, 10, 30 mg/kg, p.o.
Arthritis is scored according to the method of Khachigian 2006, Lin et al 2007 and Nishida et al. 2004). The swelling of each of the four paws is ranked with the arthritic score as follows: 0-no symptoms; 1-mild, but definite redness and swelling of one type of joint such as the ankle or wrist, or apparent redness and swelling limited to individual digits, regardless of the number of affected digits; 2-moderate redness and swelling of two or more types of joints; 3-severe redness and swelling of the entire paw including digits; 4-maximally inflamed limb with involvement of multiple joints (maximum cumulative clinical arthritis score 16 per animal) (Nishida et al., 2004).
To permit the meta-analysis of multiple studies the clinical score values were normalised as follows:
AUC of clinical score (AUC score): The area under the curve (AUC) from day 1 to day 14 was calculated for each individual rat. The AUC of each animal was divided by the average AUC obtained for the vehicle in the study from which the data on that animal was obtained and multiplied by 100 (i.e. the AUC was expressed as a percentage of the average vehicle AUC per study).
Clinical score increase from day 1 to day 14 (End point score): The clinical score difference for each animal was divided by the average clinical score difference obtained for the vehicle in the study from which the data on that animal was obtained and multiplied by 100 (i.e. the difference was expressed as a percentage of the average clinical score difference for the vehicle per study).
X-ray photos were taken of the hind paws of each individual animal. A random blind identity number was assigned to each of the photos, and the severity of bone erosion was ranked by two independent scorers with the radiological Larsen's score system as follows: 0—normal with intact bony outlines and normal joint space; 1—slight abnormality with any one or two of the exterior metatarsal bones showing slight bone erosion; 2—definite early abnormality with any three to five of the exterior metatarsal bones showing bone erosion; 3—medium destructive abnormality with all the exterior metatarsal bones as well as any one or two of the interior metatarsal bones showing definite bone erosions; 4—severe destructive abnormality with all the metatarsal bones showing definite bone erosion and at least one of the inner metatarsal joints completely eroded leaving some bony joint outlines partly preserved; 5—mutilating abnormality without bony outlines. This scoring system is a modification from Salvemini et al., 2001; Bush et al., 2002; Sims et al., 2004; Jou et al., 2005.

[6] = tested on: JAK-STAT signalling in HeLa cells; assay: JAK-STAT signalling assay (OSM-triggered pSTAT1(2)-luciferase reporter in HeLa cells); type: cell-based; conditions: Homo sapiens, human OSM 33 ng/mL, STAT1 luciferase reporter
Experimental: HeLa cells were maintained in Dulbecco's Modified Eagle's Medium (DMEM) containing 10% heat inactivated fetal calf serum, 100 U/mL penicillin and 100 μg/mL streptomycin. HeLa cells were used at 70% confluence for transfection. 20,000 cells in 87 μL cell culture medium were transiently transfected with 40 ng pSTAT1(2)-luciferase reporter (Panomics), 8 ng of LacZ reporter as internal control reporter and 52 ng of pBSK using 0.32 μL Jet-PEI (Polyplus) as transfection reagent per well in 96-well plate format. After overnight incubation at 37° C., 10% CO2, transfection medium was removed.
40 μL of cell lysate was used to read β-galactosidase activity by adding 180 μL β-Gal solution (30 μL ONPG 4 mg/mL+150 μL β-Galactosidase buffer (0.06 M Na2HPO4, 0.04 M NaH2PO4, 1 mM MgCl2)) for 20 min.
The positive and negative controls were used to calculate z′ and ‘percent inhibition’ (PIN) values.
PIN values were plotted for compounds tested in dose-response and EC50 values were derived.

O=C(Nc1nc2cccc(-c3ccc(CN4CCS(=O)(=O)CC4)cc3)n2n1)C1CC1 [Compound 1, Cyclopropanecarboxylic acid {5-[4-(1,1-dioxo-1-thiomorpholin-4-ylmethyl)-phenyl]-[1,2,4]triazolo[1,5-a]pyridin-2-yl}-amide]
C0 [1]: 1.41 µg/mL | activity in septic shock model (blocking of TNF release) [2]: active | EC50 [3]: 2.24 µM | microsomal stability, percentage of compound remaining after 60 min, Human [4]: 87.2% | microsomal stability, percentage of compound remaining after 60 min, Rat [5]: 65.6% | Clinical Assessment AUC Score (rat CIA model; 0.1 mg/kg/day p.o.): * | Clinical Assessment End point score (rat CIA model; 0.1 mg/kg/day p.o.): * | Paw swelling (rat CIA model; 0.3 mg/kg/day p.o.): * | Clinical Assessment AUC Score (rat CIA model; 0.3 mg/kg/day p.o.): * | Clinical Assessment End point score (rat CIA model; 0.3 mg/kg/day p.o.): * | Paw swelling (rat CIA model; 1 mg/kg/day p.o.): * | Clinical Assessment AUC Score (rat CIA model; 1 mg/kg/day p.o.): * | Clinical Assessment End point score (rat CIA model; 1 mg/kg/day p.o.): * | Larsen' Score (rat CIA model; 3 mg/kg/day p.o.): * | Paw swelling (rat CIA model; 3 mg/kg/day p.o.): * | Clinical Assessment AUC Score (rat CIA model; 3 mg/kg/day p.o.): * | Clinical Assessment End point score (rat CIA model; 3 mg/kg/day p.o.): * | normalized clinical score values (calculated as AUC or as the difference from day 1 to day 14) (rat CIA model; dose of 0.1 mg/kg): statistically significant improvements | paw swelling readout (rat CIA model; dose of 0.3 mg/kg): statistically significant increase | Larsen score (rat CIA model; dose of 3 mg/kg): statistically significant increase | improvement in efficacy over Compound 2 when the oral doses are compared (rat CIA model; oral doses compared): 100 fold

O=C(Nc1nc2cccc(-c3ccc(CN4CCOCC4)cc3)n2n1)C1CC1 [Compound 2, N-(5-(4-(morpholinomethyl)phenyl)-[1,2,4]triazolo[1,5-a]pyridin-2-yl)cyclopropanecarboxamide]
C0 [1]: 0.863 µg/mL | microsomal stability, percentage of compound remaining after 60 min, Human [4]: 73% | microsomal stability, percentage of compound remaining after 60 min, Rat [5]: 38% | normalized clinical score values (on day 14) (rat CIA model; dose of 10 mg/kg): statistically significant improvements | Larsen score (rat CIA model; dose of 30 mg/kg): statistically significant increase | paw swelling readout (rat CIA model; dose of 30 mg/kg): statistically significant increase

O=C(Nc1nc2cccc(-c3ccc(C(=O)N4CCS(=O)(=O)CC4)cc3)n2n1)C1CC1 [Compound 10, Cyclopropanecarboxylic acid {5-[4-(1,1-dioxo-1-thiomorpholine-4-carbonyl)-phenyl]-[1,2,4]triazolo[1,5-a]yridin-2-yl}-amide]
microsomal stability, percentage of compound remaining after 60 min, Human [4]: 102% | microsomal stability, percentage of compound remaining after 60 min, Rat [5]: 89%

O=C(Nc1nc2cccc(-c3ccc(CN4CCC(F)(F)CC4)cc3)n2n1)C1CC1 [Compound 11, Cyclopropanecarboxylic acid {5-[4-(4,4-difluoro-piperidin-1-ylmethyl)-phenyl]-[1,2,4]triazolo[1,5-a]pyridin-2-yl}-amide]
microsomal stability, percentage of compound remaining after 60 min, Human [4]: 51% | EC50 [6]: 0.74 µM | microsomal stability, percentage of compound remaining after 60 min, Rat [5]: 26%
